The source of these data is PMC8725163 (Acta Crystallographica. Section D, Structural Biology, 2022).

This assay addresses T1, BpsDsbA (oxidized) (Burkholderia pseudomallei, UniProt Q63Y08).
T1 construct: gene dsbA
The assay is described as follows: biochemical.

T1 sequence (Q63Y08 16-212 limits assumed): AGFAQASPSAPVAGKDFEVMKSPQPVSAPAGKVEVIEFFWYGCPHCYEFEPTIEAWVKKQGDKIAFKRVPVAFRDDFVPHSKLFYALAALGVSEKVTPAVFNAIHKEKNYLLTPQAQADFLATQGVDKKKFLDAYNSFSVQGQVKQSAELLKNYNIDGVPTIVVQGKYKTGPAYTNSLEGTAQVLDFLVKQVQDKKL

For `COc1ccc(S(=O)(=O)Nc2ccccc2)cc1` [compound 2, 4-methoxy-N-phenylbenzenesulfonamide], the Kd is more than 2000 µM.

For orientation: Kd means the equilibrium constant for the complex coming apart.
